Results as given in US20210401773A1 (priority 2020, published 2021).

System: COVID-19
Assay: Clinical trials/studies: case reports of ye-[…] in people with COVID-19
Type: in vivo
Conditions: case 2: taken before ye-COVIDICIN; they got worse

CCN(CCO)CCCC(C)Nc1ccnc2cc(Cl)ccc12 (stereo not shown) [Hydroxychloroquine]
Effect on COVID-19 in patient: did not work
